Source: the supplement of paper PMC11061612

Legend:
[1] = system: SNU-1 (Gastric Carcinoma); assay: combination Emax (second highest fraction inhibited in the dose matrix, 72 h); higher = more inhibition; extreme values may be limits of the assay
Summary of the method: (§1)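 After 24 hours at 37°C and 5% CO2 in 1536-well plates, cells in DMEM/F12 or RPMI plus 10% FBS received two-drug dose matrices for 72 hours. Viability came from CellTiter-Glo 2.0 luminescence and was scaled as inhibition, anchored at 0 by vehicle wells and at 1 by blank wells. Combination Emax is taken as the second-highest inhibition in the matrix, and Bliss excess as the observed combination effect less EA + EB − EA·EB, with EA and EB the single-agent effects.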

[2] = system: NCI-H2009 (Lung Adenocarcinoma); assay: as above
Summary of the method: as §1

[3] = system: HT-144 (Melanoma); assay: as above
Summary of the method: as §1

[4] = system: A375 (Melanoma); assay: as above
Summary of the method: as §1

[5] = system: MG-63 (Osteosarcoma); assay: as above
Summary of the method: as §1

[6] = system: SUP-HD1 (Hodgkin's Lymphoma); assay: as above
Summary of the method: as §1

[7] = system: C32 (Melanoma); assay: as above
Summary of the method: as §1

[8] = system: RPMI-8402 (T-Lymphoblastic Leukemia); assay: as above
Summary of the method: as §1

[9] = system: ATN-1 (T-Lymphoblastic Leukemia); assay: Bliss excess, mean over the matrix (fraction); higher = more synergy
Summary of the method: as §1

[10] = system: HT-3 (Cervical Carcinoma); assay: as above
Summary of the method: as §1

[11] = system: SBC-5 (Small Cell Lung Carcinoma); assay: as above
Summary of the method: as §1

[12] = system: IGROV-1 (Ovarian Carcinoma); assay: as above
Summary of the method: as §1

[13] = system: NCI-H1435 (Non-Small Cell Lung Carcinoma); assay: as above
Summary of the method: as §1

[14] = system: OCI-M1 (Acute Myeloid Leukemia); assay: as above
Summary of the method: as §1

[15] = system: KNS-62 (Squamous Cell Lung Carcinoma); assay: as above
Summary of the method: as §1

[16] = system: A375 (Melanoma); assay: as above
Summary of the method: as §1

[17] = system: NCI-H2023 (Non-Small Cell Lung Carcinoma); assay: as above
Summary of the method: as §1

[18] = system: BC-1 (B-Cell Non-Hodgkin's Lymphoma); assay: as above
Summary of the method: as §1

[19] = system: SK-N-DZ (Neuroblastoma); assay: as above
Summary of the method: as §1

[20] = system: C32 (Melanoma); assay: as above
Summary of the method: as §1
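Throughout, for Bliss excess, mean over the matrix: after 72 h of two-drug dosing.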

| Structure (SMILES) | combination Emax [1] | combination Emax [2] | combination Emax [3] | combination Emax [4] | combination Emax [5] | combination Emax [6] | combination Emax [7] | combination Emax [8] | Bliss excess [9] | Bliss excess [10] | Bliss excess [11] | Bliss excess [12] | Bliss excess [13] | Bliss excess [14] | Bliss excess [15] | Bliss excess [16] | Bliss excess [17] | Bliss excess [18] | Bliss excess [19] | Bliss excess [20] |
| --- | --- | --- | --- | --- | --- | --- | --- | --- | --- | --- | --- | --- | --- | --- | --- | --- | --- | --- | --- | --- |
| CC(=O)c1c(C)c2cnc(Nc3ccc(N4CCNCC4)cn3)nc2n(C2CCCC2)c1=O [Palbociclib] + CC1(C)CCC(CN2CCN(c3ccc(C(=O)NS(=O)(=O)c4ccc(NCC5CCOCC5)c([N+](=O)[O-])c4)c(Oc4cnc5[nH]ccc5c4)c3)CC2)=C(c2ccc(Cl)cc2)C1 [Venetoclax] (first compound max 10 µM, 7x7, partner max 1 µM) | 0.451 | 0.0582 | 0.555 | 0.195 | 0.345 | 0.758 | 0.0845 | 0.972 | 0.0869 | -0.0529 | 0.0178 | 0.0026 | -0.0191 | 0.007 | -0.0152 | -0.0197 | -0.0067 | -0.0747 | 0.0824 | -0.0322 |
| CCN(CCO)CCCOc1ccc2c(Nc3cc(CC(=O)Nc4cccc(F)c4)[nH]n3)ncnc2c1 [AZD2811] + C=CCn1c(=O)c2cnc(Nc3ccc(N4CCN(C)CC4)cc3)nc2n1-c1cccc(C(C)(C)O)n1 [AZD1775] (first compound max 1 µM, partner max 1 µM) | 0.675 | 0.749 | 0.634 | 0.482 | 0.393 | 0.841 | 0.359 | 1 | 0.0053 | -0.0176 | 0.114 | -0.0034 | -0.0181 | 0.058 | -0.0339 | 0.0143 | 0.0031 | -0.031 | -0.0289 | -0.0354 |
| CCc1c2c(nc3ccc(O)cc13)-c1cc3c(c(=O)n1C2)COC(=O)[C@]3(O)CC [SN-38] + CN(C)CCCOc1ccc(-c2ccc3ncc4c(c3c2)n(C2CCOCC2)c(=O)n4C)cn1 [AZD0156] (first compound max 0.3 µM, 7x7, partner max 1 µM) | 0.942 | 0.562 | 0.753 | 0.993 | 0.906 | 0.907 | 0.688 | 1 | 0.0407 | 0.0499 | 0.0245 | -0.0101 | -0.026 | 0.0128 | -0.0557 | 0.0168 | -0.0017 | 0.0158 | 0.0604 | 0.0537 |
| Cn1cnc2c(F)c(Nc3ccc(Br)cc3Cl)c(C(=O)NOCCO)cc21 [Selumetinib] + C=CCn1c(=O)c2cnc(Nc3ccc(N4CCN(C)CC4)cc3)nc2n1-c1cccc(C(C)(C)O)n1 [AZD1775] (first compound max 10 µM, partner max 1 µM) | 0.766 | 0.779 | 0.812 | 0.755 | 0.394 | 0.727 | 0.987 | 1 | -0.0253 | -0.0009 | -0.022 | -0.0444 | 0.0007 | 0 | -0.0251 | -0.0187 | -0.0578 | 0.0569 | -0.022 | -0.0036 |
| COc1nnc2ccc(N3CCC(c4ccc(OCCN5CCN(C)C(=O)[C@H]5C)cc4)CC3)nn12 [AZD5153] + Cc1c2c(nn1C)CSCc1cc(n(C)n1)CSc1cc(c3ccccc3c1)OCCCc1c(C(=O)O)n(C)c3c-2c(Cl)ccc13 [AZD5991] (first compound max 1 µM, 7x7, partner max 1 µM) | 0.976 | 0.379 | 0.978 | 0.606 | 0.697 | 0.946 | 0.947 | 1 | -0.0304 | 0.0362 | -0.0062 | -0.0069 | -0.0108 | -0.018 | -0.0459 | -0.0215 | -0.0217 | -0.0202 | -0.0117 | 0.142 |
| COc1nnc2ccc(N3CCC(c4ccc(OCCN5CCN(C)C(=O)[C@H]5C)cc4)CC3)nn12 [AZD5153] + CCN(CCO)CCCOc1ccc2c(Nc3cc(CC(=O)Nc4cccc(F)c4)[nH]n3)ncnc2c1 [AZD2811] (first compound max 1 µM, 7x7, partner max 1 µM) | 0.653 | 0.382 | 0.48 | 0.562 | 0.694 | 0.704 | 0.38 | 0.999 | -0.127 | -0.0644 | -0.0286 | -0.0574 | 0.0052 | 0.06 | -0.0382 | -0.0295 | -0.0248 | -0.0313 | -0.0722 | 0.0199 |
| CN(C)CCCOc1ccc(-c2ccc3ncc4c(c3c2)n(C2CCOCC2)c(=O)n4C)cn1 [AZD0156] + O=C(c1cc(Cc2n[nH]c(=O)c3ccccc23)ccc1F)N1CCN(C(=O)C2CC2)CC1 [Olaparib] (first compound max 3 µM, partner max 3 µM) | 0.182 | 0.436 | 0.381 | 0.29 | 0.548 | 0.166 | 0.164 | 0.666 | 0.011 | 0.0386 | 0.0732 | 0.0623 | -0.0277 | 0.17 | 0.0435 | 0.0591 | 0.0234 | 0.0648 | -0.0533 | -0.035 |
